Each structure is given as a SMILES string.

The target of this assay is T1, Human dopamine D4 receptor (Homo sapiens, UniProt P21917).
T1 sequence (P21917 1-419): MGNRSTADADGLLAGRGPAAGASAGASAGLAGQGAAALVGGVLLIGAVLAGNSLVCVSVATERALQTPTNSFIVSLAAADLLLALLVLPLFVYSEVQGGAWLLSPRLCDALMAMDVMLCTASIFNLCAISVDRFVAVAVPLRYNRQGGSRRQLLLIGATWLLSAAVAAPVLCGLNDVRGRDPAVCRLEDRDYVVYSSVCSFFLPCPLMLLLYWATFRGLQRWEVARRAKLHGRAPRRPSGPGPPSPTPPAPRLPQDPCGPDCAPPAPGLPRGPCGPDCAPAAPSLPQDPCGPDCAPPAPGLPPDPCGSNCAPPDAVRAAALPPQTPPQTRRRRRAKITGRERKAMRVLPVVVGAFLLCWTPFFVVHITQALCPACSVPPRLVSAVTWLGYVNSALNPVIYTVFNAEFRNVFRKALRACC
Put plainly: Agonistic/antagonistic activity in G protein dependent pathway (aequorin intracellular calcium luminescence), D4. Type of assay: cell-based. Further details: expressed in transfected cells; host or cells: CHO-K1 or HEK293 cells. To be noted: read-out: Maximal activity on each receptor (%): D4. The method, then:
Plasmids encoding each receptor, aequorin and Gα16 were prepared, and the plasmids were transfected into CHO cells (Chinese Hamster Ovary cells) or HEK293 cells (Human Embryonic Kidney 293 cells) to prepare expressing cell lines.
The agonistic or antagonistic activity of the present compound in the G protein dependent pathway was evaluated on the basis of intracellular calcium levels as follows. CHO-K1 or HEK293 cell lines transfected with D2, D4, α1A, or α2A receptor genes were seeded in a 384-well plate, and incubated in a CO2 incubator at 37° C. for 24 hours, and then a solution of the present compound in DMSO was added into cells preloaded with coelenterazine to measure the change in luminescent signals with a FDSS (Hamamatsu Photonics K.K.). […] The agonistic activity of the present compound was calculated according to the measured luminescent signals, as the maximal activity (Emax) of the present compound. On the other hand, the antagonistic activity of the present compound was calculated according to the luminescent signals in wells with 10 μM of an endogenous ligand alone defined as 100%, as the inhibitory activity of the present compound to an endogenous ligand. EC50 value was calculated as the concentration of the present compound required to achieve a 50% response, and IC50 was calculated as the concentration of the present compound required to achieve a 50% inhibition of the Emax of an endogenous ligand.
As to `Cc1ncc(CN2CCC(c3ccccn3)CC2)cn1` [Example 31], the Emax at 1 µM stood at 82%.

`CC(C)c1ncc(CN2CC=C(c3ccccn3)CC2)c(N)n1` [Example 14]: the Emax at 1 µM came out at 87%.

Take `Cc1ncc(CN2CC=C(c3cc(Cl)ccn3)CC2)c(N)n1` [Example 55]: the Emax at 1 µM came out at 88%.

As to `Cc1ccnc(C2CCN(Cc3cnc(C)nc3N)CC2)c1` [Example 57, 2-Methyl-5-[4-(4-methylpyridin-2-yl)piperidin-1-ylmethyl]pyrimidin-4-amine], the Emax at 1 µM is 62%.

As for `CCc1ncc(CN2CC=C(c3ccccn3)CC2)c(N)n1` [Example 10, 5-(3′,6′-Dihydro-2,4′-bipyridin-1′(2′H)-ylmethyl)-2-ethylpyrimidin-4-amine], the Emax at 1 µM stood at 110%.

Turning to `Cc1ncc(CN2CCC(c3cncc(F)c3)CC2)c(C)n1` [Example 48, 5-[4-(5-Fluoropyridin-3-yl)piperidin-1-ylmethyl]-2,4-dimethylpyrimidine], the Emax at 1 µM came to 62%.

As for `Cc1cncc(C2CCN(Cc3cnc(C)nc3N)CC2)c1` [Example 53], the Emax at 1 µM came out at 66%.

Regarding `Cc1ncc(CN2CC=C(c3ccccn3)CC2)cn1` [Example 29, 1′-[(2-Methylpyrimidin-5-yl)methyl]-1′,2′,3′,6′-tetrahydro-2,4′-bipyridine], the Emax at 1 µM was 107%.

For `Nc1nc(C2CCCC2)ncc1CN1CC=C(c2ccccn2)CC1` [Example 21], the Emax at 1 µM was determined as 93%.

As for `Nc1nc(C2CCCC2)ncc1CN1CC=C(c2cccnc2)CC1` [Example 22], the Emax at 1 µM was 72%.

Turning to `CNc1nc(C)ncc1CN1CCC(c2cccnc2)CC1` [Example 28], the Emax at 1 µM is 62%.

Regarding `CC(C)c1ncc(CN2CC=C(c3cccnc3)CC2)c(N)n1` [Example 15], the Emax at 1 µM came to 131%.

Regarding `Cc1ncc(CN2CCC(c3cncc(F)c3)CC2)c(N)n1` [Example 7, 5-[4-(5-Fluoropyridin-3-yl)piperidin-1-ylmethyl]-2-methylpyrimidin-4-amine], the Emax at 1 µM is 64%.

`Cc1ncc(CN2CCC(c3cccnc3)CC2)c(N)n1` [Example 6, 2-Methyl-5-[4-(pyridin-3-yl)piperidin-1-ylmethyl]pyrimidin-4-amine]: the Emax at 1 µM is 63%.

On to `Cc1ncc(CN2CC=C(c3ccccn3)CC2)c(C)n1` [Example 50], for which the Emax at 1 µM stood at 70%.

Consider `Cc1ncc(CN2CC=C(c3ncccc3F)CC2)c(N)n1` [Example 3, 5-(3-Fluoro-3′,6′-dihydro-2,4′-bipyridin-1′(2′H)-ylmethyl)-2-methylpyrimidin-4-amine], for which the Emax at 1 µM was determined as 69%.

Take `Cc1ncc(CN2CCCC(c3ccccn3)CC2)c(N)n1` (stereo not shown) [Example 42, 2-Methyl-5-[4-(pyridin-2-yl)azepan-1-ylmethyl]pyrimidin-4-amine]: the Emax at 1 µM was 71%.

As to `Cc1ncc(CN2CC=C(c3ccccn3)CC2)c(N)n1` [Example 1, 5-(3′,6′-Dihydro-2,4′-bipyridin-1′(2′H)-ylmethyl)-2-methylpyrimidin-4-amine], the Emax at 1 µM was 62%.

With `Cc1ncc(CN2CCC(c3nccc4ccccc34)CC2)c(N)n1` [Example 8], the Emax at 1 µM was found to be 62%.

Turning to `Nc1nc(C2CCCC2)ncc1CN1CCC(c2ccccn2)CC1` [Example 23], the Emax at 1 µM was determined as 105%.

As for `Cc1ncc(CN2CC=C(c3cncc(F)c3)CC2)c(N)n1` [Example 4, 5-(5-Fluoro-3′,6′-dihydro-3,4′-bipyridin-1′(2′H)-ylmethyl)-2-methylpyrimidin-4-amine], the Emax at 1 µM was determined as 65%.

Consider `Cc1ncc(CN2CCCC(c3cccnc3)CC2)c(N)n1` (stereo not shown) [Example 43, 2-Methyl-5-[4-(pyridin-3-yl)azepan-1-ylmethyl]pyrimidin-4-amine], for which the Emax at 1 µM turned out to be 92%.

In the case of `Nc1nc(C2CCCC2)ncc1CN1CCC(c2cccnc2)CC1` [Example 24], the Emax at 1 µM worked out at 103%.

`Cc1ncc(CN2CC=C(c3cccnc3)CC2)c(C)n1` [Example 49]: the Emax at 1 µM worked out at 66%.

For the molecule `Cc1ncc(CN2CCC(c3cc4ccccc4cn3)CC2)c(N)n1` [Example 9, 5-[4-(Isoquinolin-3-yl)piperidin-1-ylmethyl]-2-methylpyrimidin-4-amine], the Emax at 1 µM amounted to 70%.

Consider `Cc1ncc(CN2CC=C(c3cccc(Cl)n3)CC2)c(N)n1` [Example 56], for which the Emax at 1 µM came out at 40%.

For the molecule `Cc1ncc(CN2CCC(c3nccs3)CC2)c(N)n1` [Example 47, 2-Methyl-5-[4-(1,3-thiazol-2-yl)piperidin-1-ylmethyl]pyrimidin-4-amine], the Emax at 1 µM came to 51%.

On to `Nc1nc(C2CC2)ncc1CN1CC=C(c2ccccn2)CC1` [Example 17], for which the Emax at 1 µM turned out to be 72%.

`Cc1ncc(CN2CCC(c3cccnc3)CC2)cn1` [Example 32]: the Emax at 1 µM was found to be 68%.

Regarding `Cc1cccc(C2=CCN(Cc3cnc(C)nc3N)CC2)n1` [Example 52], the Emax at 1 µM stood at 67%.

Consider `Cc1ncc(CN2CC=C(c3cccnc3)CC2)cn1` [Example 30], for which the Emax at 1 µM was found to be 86%.

As to `Cc1ncc(CN2CCC(c3ccccn3)C(C)C2)c(N)n1` (stereo not shown) [Example 40, 2-Methyl-5-[3-methyl-4-(pyridin-2-yl)piperidin-1-ylmethyl]pyrimidin-4-amine], the Emax at 1 µM was 72%.

On to `Nc1ncc(CN2CC=C(c3ccccn3)CC2)cn1` [Example 34, 5-(3′,6′-Dihydro-2,4′-bipyridin-1′(2′H)-ylmethyl)pyrimidin-2-amine], for which the Emax at 1 µM was 93%.

With `CNc1nc(C)ncc1CN1CCC(c2ccccn2)CC1` [Example 27], the Emax at 1 µM was found to be 66%.

For `CNc1nc(C)ncc1CN1CC=C(c2ccccn2)CC1` [Example 25], the Emax at 1 µM amounted to 71%.

For the molecule `CCc1ncc(CN2CC=C(c3cccnc3)CC2)c(N)n1` [Example 11], the Emax at 1 µM is 93%.

As to `Nc1nc(C2CC2)ncc1CN1CC=C(c2cccnc2)CC1` [Example 18], the Emax at 1 µM was 58%.

Regarding `Cc1ncc(CN2CCC(c3ccccn3)CC2C)c(N)n1` (stereo not shown) [Example 38, 2-Methyl-5-[2-methyl-4-(pyridin-2-yl)piperidin-1-ylmethyl]pyrimidin-4-amine], the Emax at 1 µM amounted to 51%.

With `Cc1ncc(CN2CCC(c3cccnc3)C(C)C2)c(N)n1` (stereo not shown) [Example 41, 2-Methyl-5-[3-methyl-4-(pyridin-3-yl)piperidin-1-ylmethyl]pyrimidin-4-amine], the Emax at 1 µM stood at 59%.

For the molecule `Nc1nc(C2CC2)ncc1CN1CCC(c2ccccn2)CC1` [Example 19], the Emax at 1 µM came out at 64%.

For the molecule `Cc1ccnc(C2=CCN(Cc3cnc(C)nc3N)CC2)c1` [Example 51], the Emax at 1 µM worked out at 88%.

In the case of `CCc1ncc(CN2CCC(c3ccccn3)CC2)c(N)n1` [Example 12], the Emax at 1 µM is 101%.

As to `Nc1nc(C2CC2)ncc1CN1CCC(c2cccnc2)CC1` [Example 20], the Emax at 1 µM was 54%.

Take `Cc1ncc(CN2CCC(c3cccnc3)CC2C)c(N)n1` (stereo not shown) [Example 39, 2-Methyl-5-[2-methyl-4-(pyridin-3-yl)piperidin-1-ylmethyl]pyrimidin-4-amine]: the Emax at 1 µM is 49%.

Regarding `Nc1ncc(CN2CC=C(c3cccnc3)CC2)cn1` [Example 35], the Emax at 1 µM came to 86%.

Regarding `CCc1ncc(CN2CCC(c3cccnc3)CC2)c(N)n1` [Example 13], the Emax at 1 µM stood at 81%.

Turning to `CC(C)c1ncc(CN2CCC(c3cccnc3)CC2)c(N)n1` [Example 16], the Emax at 1 µM stood at 78%.

Turning to `CNc1nc(C)ncc1CN1CC=C(c2cccnc2)CC1` [Example 26], the Emax at 1 µM stood at 75%.

On to `Cc1cncc(C2=CCN(Cc3cnc(C)nc3N)CC2)c1` [Example 54], for which the Emax at 1 µM amounted to 60%.

The values are drawn from patent publication US9732065B2, “Cyclic aminomethyl pyrimidine derivative” (Sumitomo Dainippon Pharma Co., Ltd., priority 2013, dated 2017).
